Assays:
[1] = test system: Sprague Dawley rats (Crl:CD(SD)); assay: oral glucose tolerance test in overnight fasted Sprague Dawley rats (3rd Example); type: in vivo, rat; conditions: male Sprague Dawley rats, not statistically significant
Method: (§1) According to a second example an oral glucose tolerance test is performed in overnight fasted male Sprague Dawley rats (Crl:CD(SD)) with a body weight of about 200 g. A pre-dose blood sample is obtained by tail bleed. Blood glucose is measured with a glucometer, and the animals are randomized for blood glucose (n=5/group). Subsequently, the groups receive a single oral administration of either vehicle alone (0.5% aqueous hydroxyethylcellulose containing 0.015% Polysorbat 80) or vehicle containing either the glucopyranosyl-substituted benzene derivative or the DPPIV inhibitor or the combination of the glucopyranosyl-substituted benzene derivative with the DPPIV inhibitor. The animals receive an oral glucose load (2 g/kg) 30 min after compound administration. Blood glucose is measured in tail blood 30 min, 60 min, 90 min, and 120 min after the glucose challenge. Glucose excursion is quantified by calculating the reactive glucose AUC. The data are presented as mean±S.E.M. Statistical comparisons are conducted by Student's t test.
In a third example the same experimental setting is employed as in the second example as described herein before. The glucopyranosyl-substituted benzene derivative (9), i.e. 1-chloro-4-(β-D-glucopyranos-1-yl)-2-[4-((S)-tetrahydrofuran-3-yloxy)-benzyl]-benzene, is administered at a dose of 3 mg/kg. […]

[2] = test system: Zucker Diabetic Fatty (ZDF) rats (ZDF/Crl-Lepr^fa); assay: oral glucose tolerance test in overnight fasted ZDF rats (1st Example); type: in vivo, rat; conditions: male ZDF rats
Method: According to a first example an oral glucose tolerance test is performed in overnight fasted 9-weeks old male Zucker Diabetic Fatty (ZDF) rats (ZDF/Crl-Lepr^fa). A pre-dose blood sample is obtained by tail bleed. Blood glucose is measured with a glucometer, and the animals are randomized for blood glucose (n=5/group). Subsequently, the groups receive a single oral administration of either vehicle alone (0.5% aqueous hydroxyethylcellulose containing 3 mM HCl and 0.015% Polysorbat 80) or vehicle containing either the glucopyranosyl-substituted benzene derivative or the DPP IV inhibitor or the combination of the glucopyranosyl-substituted benzene derivative with the DPP IV inhibitor. The animals receive an oral glucose load (2 g/kg) 30 min after compound administration. Blood glucose is measured in tail blood 30 min, 60 min, 90 min, 120 min, and 180 min after the glucose challenge. Glucose excursion is quantified by calculating the reactive glucose AUC. The data are presented as mean±SEM. The two-sided unpaired Student t-test is used for statistical comparison of the control group and the active groups.
“Cpd. A” is the DPP IV inhibitor 1-[(4-methyl-quinazolin-2-yl)methyl]-3-methyl-7-(2-butyn-1-yl)-8-(3-(R)-amino-piperidin-1-yl)-xanthine at a dose of 1 mg/kg. Cpd. […]

[3] = test system: Sprague Dawley rats (Crl:CD(SD)); assay: oral glucose tolerance test in overnight fasted Sprague Dawley rats (2nd Example); type: in vivo, rat; conditions: male Sprague Dawley rats, not statistically significant
Method: as §1
“Cpd. A” is the glucopyranosyl-substituted benzene derivative (9), i.e. 1-chloro-4-(β-D-glucopyranos-1-yl)-2-[4-((S)-tetrahydrofuran-3-yloxy)-benzyl]-benzene, administered at a dose of 3 mg/kg. The DPPIV inhibitor saxagliptin is administered at a dose of 0.3 mg/kg. […]

[4] = in the diabetic, metformin on its own; cited from earlier work
[5] = single oral dose 3 mg/kg 30 min before glucose load 2 g/kg

## N[C@@H](CC(=O)N1CCn2c(nnc2C(F)(F)F)C1)Cc1cc(F)c(F)cc1F [sitagliptin, (3R)-3-amino-1-[3-(trifluoromethyl)-5,6,7,8-tetrahydro-5H-[1,2,4]triazolo[4,3-a]pyrazin-7-yl]-4-(2,4,5-trifluorophenyl)butan-1-one, reference compound]
[1]; single oral dose 10 mg/kg 30 min before glucose load 2 g/kg
  reduction of glucose excursion (reactive glucose AUC): 16%

## OC[C@H]1O[C@@H](c2ccc(Cl)c(Cc3ccc(O[C@H]4CCOC4)cc3)c2)[C@H](O)[C@@H](O)[C@@H]1O [(9), 1-chloro-4-(β-D-glucopyranos-1-yl)-2-[4-((S)-tetrahydrofuran-3-yloxy)-benzyl]-benzene]
[1]; [5]
  reduction of glucose excursion (reactive glucose AUC): 21%
[2]; single oral dose 3 mg/kg 30 min before oral glucose load 2 g/kg
  reduction of glucose excursion (reactive glucose AUC): 51%
[3]; [5]
  reduction of glucose excursion (reactive glucose AUC): 21%

## CC#CCn1c(N2CCC[C@@H](N)C2)nc2c1c(=O)n(Cc1nc(C)c3ccccc3n1)c(=O)n2C [Cpd. A, 1-[(4-methyl-quinazolin-2-yl)methyl]-3-methyl-7-(2-butyn-1-yl)-8-(3-(R)-amino-piperidin-1-yl)-xanthine]
[2]; single oral dose 1 mg/kg 30 min before oral glucose load 2 g/kg
  reduction of glucose excursion (reactive glucose AUC): 56%

## CN(C)C(=N)N=C(N)N [metformin]
[4]
  average improvement in the HbA1c value: 1.0-1.5%

## N#C[C@@H]1C[C@@H]2C[C@@H]2N1C(=O)[C@@H](N)C12CC3CC(CC(O)(C3)C1)C2 [saxagliptin, (1S,3S,5S)-2-{(2S)-2-amino-2-(3-hydroxyadamantan-1-yl)acetyl}-2-azabicyclo[3.1.0]hexane-3-carbonitrile, reference compound]
[3]; single oral dose 0.3 mg/kg 30 min before glucose load 2 g/kg
  reduction of glucose excursion (reactive glucose AUC): 12%

— patent US8551957B2, “Pharmaceutical composition comprising a glucopyranosyl-substituted benzene derivate” (Boehringer Ingelheim International GmbH, priority 2007, dated 2013)
